Results taken from patent US20250313563A1, “GLYCOGEN SYNTHASE KINASE 3 INHIBITORS AND USES THEREOF” (The Broad Institute, Inc., priority 2022, published 2025).
Where two headings read alike, the source gives them in different places.

Key:
[1] = molecular target: GSK3b (GST-full length GSK3b) (Homo sapiens (Human), UniProt P49841); assay: GSK3b TR-FRET kinase assay; format: biochemical
Outline: (§1)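 Readout: anti-pSer641 Tb antibody/streptavidin-d2 signal after 60 min, expressed as 665/615 ratio and fitted versus log concentration for IC50. Enzyme: 1 nM GST-GSK3 (α or β), compound-preincubated 30 min. Conditions: pH 7.5 Tris buffer with MgCl2, DTT, BSA; ATP at 4 or 2 μM, or 1 mM; 100 min.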

[2] = molecular target: GSK3α (GST-full length GSK3α) (Homo sapiens (Human), UniProt P49840); assay: GSK3α TR-FRET kinase assay; format: biochemical
Outline: as §1

[3] = 1 nM GSK3b, 2 μM ATP, 30 minute preincubation, Table 16, read-out: GSK3-B TR-FRET BIOCHEMICAL (TR-FRET), IC50
[4] = 1 nM GSK3α, 4 μM ATP, 30 minute preincubation, Table 16, read-out: GSK3-A TR-FRET BIOCHEMICAL (TR-FRET), IC50
[5] = 1 nM GSK3b, 2 μM ATP, 30 minute preincubation, read-out: GSK3-B TR-FRET BIOCHEMICAL (TR-FRET), IC50
[6] = 1 nM GSK3α, 4 μM ATP, 30 minute preincubation, read-out: GSK3-A TR-FRET BIOCHEMICAL (TR-FRET), IC50
[7] = 1 nM GSK3b, 2 μM ATP, 30 minute preincubation, Table 16, read-out: GSK3-B TR-FRET BIOCHEMICAL (TR-FRET)
[8] = 1 nM GSK3α, 4 μM ATP, 30 minute preincubation, Table 16, read-out: GSK3-A TR-FRET BIOCHEMICAL (TR-FRET)
[9] = read-out: GSK3-B (TR-FRET 1 mM ATP), GMean, IC50, 1 mM ATP, geometric mean
[10] = read-out: GSK3-A (TR-FRET 1 mM ATP), GMean, IC50, 1 mM ATP, geometric mean

GSK3b (GST-full length GSK3b), sequence (P49841 whole entry): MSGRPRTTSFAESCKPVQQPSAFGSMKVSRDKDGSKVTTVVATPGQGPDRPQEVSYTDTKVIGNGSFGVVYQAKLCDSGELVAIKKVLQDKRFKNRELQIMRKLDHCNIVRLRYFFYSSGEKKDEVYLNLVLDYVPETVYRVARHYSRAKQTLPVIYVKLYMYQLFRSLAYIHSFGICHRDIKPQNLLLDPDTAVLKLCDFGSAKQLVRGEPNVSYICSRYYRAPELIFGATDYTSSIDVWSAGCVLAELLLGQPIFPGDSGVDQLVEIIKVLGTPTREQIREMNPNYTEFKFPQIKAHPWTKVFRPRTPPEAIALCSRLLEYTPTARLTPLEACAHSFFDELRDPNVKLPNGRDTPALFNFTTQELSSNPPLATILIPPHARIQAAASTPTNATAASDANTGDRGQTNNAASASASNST
GSK3α (GST-full length GSK3α), sequence (P49840 whole entry): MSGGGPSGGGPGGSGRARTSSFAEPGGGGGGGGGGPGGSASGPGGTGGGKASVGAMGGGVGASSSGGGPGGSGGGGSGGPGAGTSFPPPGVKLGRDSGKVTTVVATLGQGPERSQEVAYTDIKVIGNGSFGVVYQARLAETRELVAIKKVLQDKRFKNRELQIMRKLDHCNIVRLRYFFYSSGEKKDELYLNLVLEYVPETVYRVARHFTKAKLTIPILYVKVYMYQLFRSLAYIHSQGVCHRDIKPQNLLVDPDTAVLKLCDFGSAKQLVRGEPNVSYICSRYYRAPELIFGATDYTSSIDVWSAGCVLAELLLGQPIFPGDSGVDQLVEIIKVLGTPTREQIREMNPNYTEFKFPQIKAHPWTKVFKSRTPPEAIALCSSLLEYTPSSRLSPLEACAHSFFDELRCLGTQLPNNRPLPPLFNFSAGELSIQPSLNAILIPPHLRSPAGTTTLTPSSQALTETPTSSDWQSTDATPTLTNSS

Row | Structure (SMILES) | IC50 [1, 3] | IC50 [2, 4] | IC50 [1, 7] | IC50 [2, 8] | other results
1 | Cc1[nH]nc2c1C1(CC3(CCC3)C1)C1=C(CC(C)(C)CC1=O)N2 [Compound 877295] | – | – | – | – | IC50 [1, 5]: > 5000 nM; IC50 [2, 6]: > 5000 nM
2 | CCC1(c2cccc(N3CCCCC3)c2)C2=C(CC(C)(C)CC2=O)Nc2n[nH]c(C)c21 (stereo not shown) [Compound 877311] | – | – | – | – | IC50 ([1]; 1 nM GSK3b, 2 μM ATP, 30 minute preincubation, geometric mean, read-out: GSK3-B TR-FRET BIOCHEMICAL (TR-FRET), GMean, IC50): ≤ 100 nM; IC50 ([2]; 1 nM GSK3α, 4 μM ATP, 30 minute preincubation, geometric mean, read-out: GSK3-A TR-FRET BIOCHEMICAL (TR-FRET), GMean, IC50): ≤ 100 nM
3 | CC1(C)CC(=O)C2=C(C1)Nc1n[nH]cc1[C@]21CCOC1 [Compound 877313] | – | – | 100 to 1000 nM | 100 to 1000 nM | –
4 | CC1(C)CC(=O)C2=C(C1)Nc1n[nH]cc1[C@@]21CCOC1 [Compound 877314] | 1000 to 5000 nM | 100 to 1000 nM | – | – | –
5 | CC1(C)CC(=O)C2=C(C1)Nc1n[nH]cc1C21CCN(S(C)(=O)=O)CC1 [Compound 880776] | – | – | ≤ 100 nM | ≤ 100 nM | –
6 | C[C@@H]1CC[C@@]2(C1)C1=C(CC(C)(C)CC1=O)Nc1n[nH]cc12 [Compound 883841] | – | – | 100 to 1000 nM | 100 to 1000 nM | –
7 | CC1(C)CC(=O)C2=C(C1)Nc1n[nH]cc1[C@@]21CCCC(C)(C)C1 [Compound 883846] | – | – | 1000 to 5000 nM | 100 to 1000 nM | –
8 | CCC1(c2cccc(-c3ccnc(OC)c3)c2)C2=C(CC(C)(C)CC2=O)Nc2n[nH]cc21 (stereo not shown) [Compound 883850] | 100 to 1000 nM | ≤ 100 nM | – | – | –
9 | CC1(C)CC(=O)C2=C(C1)Nc1n[nH]cc1C21CC(C)(C)C1 [Compound 883864] | – | – | 100 to 1000 nM | ≤ 100 nM | –
10 | Cc1[nH]nc2c1C1(CCCCC1)C1=C(CC(C)(C)CC1=O)N2 [Compound 883865] | – | – | 100 to 1000 nM | ≤ 100 nM | –
11 | CCC1(c2ccccc2)C2=C(CCN(C)C2=O)Nc2n[nH]cc21 (stereo not shown) [Compound 883867] | – | – | – | – | IC50 [1, 5]: > 5000 nM; IC50 [2, 6]: > 5000 nM
12 | CCC1(c2cccc(N3CCCC3)c2)C2=C(CC(C)(C)CC2=O)Nc2n[nH]c(C)c21 (stereo not shown) [Compound 883874] | ≤ 100 nM | ≤ 100 nM | – | – | IC50 [1, 9]: 100 to 1000 nM; IC50 [2, 10]: ≤ 100 nM
13 | CC1(C)CC(=O)C2=C(C1)Nc1n[nH]cc1C21CCN(CC(F)F)CC1 [Compound 883962] | – | – | 100 to 1000 nM | 100 to 1000 nM | –
14 | CC1(C)CC(=O)C2=C(C1)Nc1n[nH]cc1C21CCSC1 (stereo not shown) [Compound 883973] | – | – | 100 to 1000 nM | ≤ 100 nM | –

Continued, in another order:

Row | IC50 [1, 3] | IC50 [2, 4] | IC50 [1, 7] | IC50 [2, 8] | Structure (SMILES) | other results
15 | > 5000 nM | > 5000 nM | – | – | Cc1[nH]nc2c1C1(CCCCC1)C1=C(CC(C)(C)CC1=O)N2 [Compound 877288] | –
16 | > 5000 nM | > 5000 nM | – | – | CCC1(CC)C2=C(CC(C)(C)CC2=O)Nc2n[nH]c(C3CC3)c21 [Compound 877294] | –
17 | – | – | ≤ 100 nM | ≤ 100 nM | CC1(C)CC(=O)C2=C(C1)Nc1n[nH]cc1C21CCC(c2ccccc2)CC1 (stereo not shown) [Compound 877320] | –
18 | > 5000 nM | > 5000 nM | – | – | CC1(C)CC(=O)C2=C(C1)Nc1n[nH]cc1C21CCN(c2ccncc2)CC1 [Compound 880765] | –
19 | – | – | 1000 to 5000 nM | 100 to 1000 nM | CC1(C)CC(=O)C2=C(Nc3n[nH]cc3C23CCOCC3)[C@H]1F [Compound 883833] | –
20 | – | – | 1000 to 5000 nM | 100 to 1000 nM | CC1(C)CC(=O)C2=C(Nc3n[nH]cc3C23CCOCC3)[C@@H]1F [Compound 883834] | –
21 | – | – | 100 to 1000 nM | 100 to 1000 nM | CC1(C)CC2=C(C(=O)[C@@H]1F)C1(CCOCC1)c1c[nH]nc1N2 [Compound 883835] | –
22 | – | – | 1000 to 5000 nM | 100 to 1000 nM | CC1(C)CC2=C(C(=O)[C@H]1F)C1(CCOCC1)c1c[nH]nc1N2 [Compound 883836] | –
23 | – | – | 100 to 1000 nM | 100 to 1000 nM | C[C@H]1CC[C@]2(C1)C1=C(CC(C)(C)CC1=O)Nc1n[nH]cc12 [Compound 883840] | –
24 | ≤ 100 nM | ≤ 100 nM | – | – | CCC1(c2cccc(-c3c(C)nn(C)c3C)c2)C2=C(CC(C)(C)CC2=O)Nc2n[nH]cc21 (stereo not shown) [Compound 883851] | –
25 | ≤ 100 nM | ≤ 100 nM | – | – | CCC1(c2cccc(C)c2)C2=C(CC(C)(C)CC2=O)Nc2n[nH]c(C(F)(F)F)c21 (stereo not shown) [Compound 883873] | IC50 [1, 9]: 100 to 1000 nM; IC50 [2, 10]: ≤ 100 nM
26 | 1000 to 5000 nM | 100 to 1000 nM | – | – | CC[C@]1(c2cccc(N3CCCC3)c2)C2=C(CC(C)(C)CC2=O)Nc2n[nH]c(C)c21 [Compound 883875] | –
27 | – | – | 100 to 1000 nM | ≤ 100 nM | CC1(C)CC(=O)C2=C(C1)Nc1n[nH]cc1C21CCC(F)(F)CC1 [Compound 883972] | –
